Drawing on patent publication US20240247080A1, “GLP1/GIP/NPY2 RECEPTOR TRIPLE AGONISTS” (Boehringer Ingelheim International GmbH, priority 2022, published 2024), this text covers EC50 for 13 substances.

Like-named read-outs stand apart in the source and are kept apart here. Starred links: 1 amine or outer side, 2 acyl side, 3 side chain; linkers in the order of their positions; H or OH if unused. Non-standard residues stand in square brackets, D forms with d. Groups on a side chain read outwards from the residue. *: point of attachment. C20 diacid = O=C(O)CCCCCCCCCCCCCCCCCCC(=O)*; C18 diacid = O=C(O)CCCCCCCCCCCCCCCCC(=O)*; γGlu = O=C(O)[C@H](CCC(=O)[*:2])N[*:1]; εLys = N[C@@H](CCCCN[*:1])C(=O)[*:2]; Tle = CC(C)(C)[C@H](N)C(=O)O; AEEA = NCCOCCOCC(=O)O; Aib = CC(C)(N)C(=O)O

Common to all, as to format: cell-based
Holding throughout (conditions): CreLuc reporter gene assay

One assay has as its target T1, hNPY2R (Homo sapiens, UniProt P49146).
T1 construct: expressed in transfected cells; host or cells: HEK-293 cells carrying a CRE-luciferase reporter gene
T1 sequence (P49146 1-381): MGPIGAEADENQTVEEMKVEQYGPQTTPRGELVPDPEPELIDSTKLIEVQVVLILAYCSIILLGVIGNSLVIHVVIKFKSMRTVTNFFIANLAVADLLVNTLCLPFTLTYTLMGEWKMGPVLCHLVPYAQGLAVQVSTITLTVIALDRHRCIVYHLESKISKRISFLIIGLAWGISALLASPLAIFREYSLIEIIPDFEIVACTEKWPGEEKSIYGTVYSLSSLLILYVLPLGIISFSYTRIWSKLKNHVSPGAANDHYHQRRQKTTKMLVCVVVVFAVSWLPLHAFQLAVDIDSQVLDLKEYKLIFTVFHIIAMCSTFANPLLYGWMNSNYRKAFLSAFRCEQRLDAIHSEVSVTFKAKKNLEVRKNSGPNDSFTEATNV
Kind of assay: hNPY2R CreLuc reporter gene assay in 0.5% and 100% plasma. In short, it runs like this:
(§1)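 HEK-293 cells co-expressing GLP-1 or NPY2 receptor and CHO cells expressing GIP receptor, each carrying a CRE-driven luciferase reporter, were stimulated with peptides for 4 hours at 37 °C. Luminescence was read after Bright-Glo addition. EC50 came from 8-point, four-decade curves fitted by variable-slope non-linear regression.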

A further assay concerns the target T2, hGIPR (Homo sapiens, UniProt P48546).
T2 construct: expressed in transfected cells; host or cells: CHO cells carrying a CRE-luciferase reporter gene
T2 sequence (P48546 22-466): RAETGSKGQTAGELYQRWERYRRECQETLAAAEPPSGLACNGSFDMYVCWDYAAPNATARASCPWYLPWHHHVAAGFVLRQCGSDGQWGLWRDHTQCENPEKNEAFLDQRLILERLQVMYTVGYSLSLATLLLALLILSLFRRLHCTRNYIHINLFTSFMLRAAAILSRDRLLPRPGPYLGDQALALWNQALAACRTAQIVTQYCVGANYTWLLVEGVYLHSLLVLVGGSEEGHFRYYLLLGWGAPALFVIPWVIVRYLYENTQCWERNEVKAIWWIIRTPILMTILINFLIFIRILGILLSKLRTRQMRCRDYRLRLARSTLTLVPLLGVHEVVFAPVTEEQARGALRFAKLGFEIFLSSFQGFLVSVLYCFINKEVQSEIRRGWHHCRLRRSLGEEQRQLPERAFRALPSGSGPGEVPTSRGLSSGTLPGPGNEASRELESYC
The experiment in a line: hGIPR CreLuc reporter gene assay in 0.5% and 100% plasma. In short, it runs like this: as §1

In the next assay the target is T3, hGLP1R (Homo sapiens, UniProt P43220).
T3 construct: expressed in transfected cells; host or cells: HEK-293 cells carrying a CRE-luciferase reporter gene
T3 sequence (P43220 24-463): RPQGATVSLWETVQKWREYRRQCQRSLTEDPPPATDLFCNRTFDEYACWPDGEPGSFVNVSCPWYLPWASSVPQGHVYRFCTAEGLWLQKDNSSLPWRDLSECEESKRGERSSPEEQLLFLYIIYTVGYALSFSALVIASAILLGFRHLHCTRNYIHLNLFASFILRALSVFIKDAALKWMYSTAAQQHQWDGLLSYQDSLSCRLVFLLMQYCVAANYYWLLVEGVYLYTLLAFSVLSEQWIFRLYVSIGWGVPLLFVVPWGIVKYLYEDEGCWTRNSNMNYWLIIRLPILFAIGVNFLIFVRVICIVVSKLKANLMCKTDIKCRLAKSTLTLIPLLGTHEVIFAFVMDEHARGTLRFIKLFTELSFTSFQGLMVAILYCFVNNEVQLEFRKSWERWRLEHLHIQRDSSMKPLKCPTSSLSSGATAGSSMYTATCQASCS
Kind of assay: hGLP1R CreLuc reporter gene assay in 0.5% and 100% plasma. In short, it runs like this: as §1

The mark [1] stands for this setting: 0.5% human plasma, read-out: hNPY2R 0.5% hP.
Setting [2] is: 0.5% human plasma, read-out: hGIPR 0.5% hP.
Setting [3] is: 0.5% human plasma, read-out: hGLP1R 0.5% hP.
The mark [4] stands for this setting: 100% human plasma, read-out: hNPY2R 100% hP.
Setting [5] is: 100% human plasma, read-out: hGIPR 100% hP.
The mark [6] stands for this setting: 100% human plasma, read-out: hGLP1R 100% hP.

As to “H-Y[Aib]EGTFTSDYSI[Aib]LEKQAQ[Aib]AFVEWLIK([εLys-γGlu-γGlu-γGlu-γGlu-γGlu-γGlu-C20 diacid])GGPSSGASLRHY[Aib]NR[Aib]TRQRY-NH2 [Compound 18, Y-Aib-E-G-T-F-T-S-D-Y-S-I-Aib-L-E-K-Q-A-Q-Aib-A-F-V-E-W-L-I-K(1,3)-G-G-P-S-S-G-A-S-L-R-H-Y-Aib-N-R-Aib-T-R-Q-R-Y-NH2.C20DA-gGlu-gGlu-gGlu-gGlu-gGlu-gGlu-eLys(1,2)]”, the EC50 turned out to be 85.7 nM on hNPY2R (setting [1]), 0.36 nM at hGIPR (setting [2]) and 0.12 nM on hGLP1R (setting [3]).
On the same counts, the results for “H-Y[Aib]EGTFTSDYSI[Aib]LEKQAQ[Aib]AFVEWLIK([εLys-γGlu-γGlu-γGlu-γGlu-γGlu-γGlu-C20 diacid])GGPSSGASLRHYINWLTRQRY-NH2 [Compound 106, Y-Aib-E-G-T-F-T-S-D-Y-S-I-Aib-L-E-K-Q-A-Q-Aib-A-F-V-E-W-L-I-K(1,3)-GGPSSGASLRHYINWLTRQRY-NH2.C20DA-gGlu-gGlu-gGlu-gGlu-gGlu-gGlu-eLys(1,2)]” are 20.5 nM, 0.26 nM and 0.14 nM.
Regarding “H-Y[Aib]EGTFTSDYSI[Aib]LEKQAQ[Aib]AFVEWLIK([εLys-γGlu-γGlu-γGlu-γGlu-γGlu-γGlu-C20 diacid])GGPSSGIELRHFLNHLTRQRY-NH2 [Compound 2, Y-Aib-E-G-T-F-T-S-D-Y-S-I-Aib-L-E-K-Q-A-Q-Aib-A-F-V-E-W-L-I-K(1,3)-GGPSSGIELRHFLNHLTRQRY-NH2.C20DA-gGlu-gGlu-gGlu-gGlu-gGlu-gGlu-eLys(1,2)]”, the EC50 on hNPY2R (setting [1]) is over 99.9 nM; at hNPY2R (setting [4]), 563 nM; at hGIPR (setting [2]) it was 0.35 nM; on hGIPR (setting [5]), 1.56 nM; at hGLP1R (setting [3]), 0.1 nM; on hGLP1R (setting [6]), 1.39 nM.
Consider “H-Y[Aib]EGTFTSDYSI[Aib]LEKQAE[Aib]AFVQWLIK([εLys-γGlu-γGlu-γGlu-γGlu-γGlu-C18 diacid])GGPSEGASLRHYYNWLTRQRY-NH2 [Compound 138, Y-Aib-E-G-T-F-T-S-D-Y-S-I-Aib-L-E-K-Q-A-E-Aib-A-F-V-Q-W-L-I-K(1,3)-GGPSEGASLRHYYNWLTRQRY-NH2.C18DA-gGlu-gGlu-gGlu-gGlu-gGlu-eLys(1,2)]”, for which the EC50 at hNPY2R (setting [1]) came to 18.3 nM; at hGIPR (setting [2]) it was 0.13 nM; on hGIPR (setting [5]) it was 0.81 nM; on hGLP1R (setting [3]), 0.19 nM.
Take “H-Y[Aib]EGTFTSDYSI[Aib]LEKQAQ[Aib]AFVEWLIK([εLys-γGlu-γGlu-γGlu-γGlu-γGlu-γGlu-γGlu-C20 diacid])GGPSEGASLRHYYNWLTRQRY-NH2 [Compound 288, Y-Aib-E-G-T-F-T-S-D-Y-S-I-Aib-L-E-K-Q-A-Q-Aib-A-F-V-E-W-L-I-K(1,3)-GGPSEGASLRHYYNWLTRQRY-NH2.C20DA-gGlu-gGlu-gGlu-gGlu-gGlu-gGlu-gGlu-eLys(1,2)]”: the EC50 on hNPY2R (setting [1]) was 14.3 nM; on hNPY2R (setting [4]), 36.8 nM; on hGIPR (setting [2]) it was 0.51 nM; at hGIPR (setting [5]), 2.43 nM; on hGLP1R (setting [3]) it was 0.17 nM.
Regarding “H-Y[Aib]EGTFTSDYSI[Aib]LEKQAQ[Aib]EFVEWLIK([AEEA-AEEA-γGlu-γGlu-γGlu-γGlu-C20 diacid])GGPSSGASLRHYYNWLTRQRY-NH2 [Compound 205, Y-Aib-E-G-T-F-T-S-D-Y-S-I-Aib-L-E-K-Q-A-Q-Aib-E-F-V-E-W-L-I-K(1,3)-GGPSSGASLRHYYNWLTRQRY-NH2.C20DA-gGlu-gGlu-gGlu-gGlu-OEG-OEG(1,2)]”, the figures for the EC50 on hNPY2R (setting [1]), on hGIPR (setting [2]) and on hGLP1R (setting [3]) were 10.6 nM, 0.33 nM and 0.44 nM, respectively.
Take “H-Y[Aib]EGTFTSDYSI[Aib]LDKQAQ[Aib]AFVEWLIK([εLys-γGlu-γGlu-γGlu-γGlu-γGlu-γGlu-C20 diacid])GGPSSGASLRHYYNWLTRQRY-NH2 [Compound 128, Y-Aib-E-G-T-F-T-S-D-Y-S-I-Aib-L-D-K-Q-A-Q-Aib-A-F-V-E-W-L-I-K(1,3)-GGPSSGASLRHYYNWLTRQRY-NH2.C20DA-gGlu-gGlu-gGlu-gGlu-gGlu-gGlu-eLys(1,2)]”: the figures for the EC50 on hNPY2R (setting [1]), on hGIPR (setting [2]) and on hGLP1R (setting [3]) were 24.8 nM, 0.11 nM and 0.4 nM, respectively.
On to “H-Y[Aib]EGTFTSDYSI[Aib]LEKQAQ[Aib]AFVEWLIK([εLys-γGlu-γGlu-γGlu-γGlu-γGlu-γGlu-C20 diacid])GGPSSGATLRHYYNWLTRQRY-NH2 [Compound 91, Y-Aib-E-G-T-F-T-S-D-Y-S-I-Aib-L-E-K-Q-A-Q-Aib-A-F-V-E-W-L-I-K(1,3)-GGPSSGATLRHYYNWLTRQRY-NH2.C20DA-gGlu-gGlu-gGlu-gGlu-gGlu-gGlu-eLys(1,2)]”, for which the EC50 at hNPY2R (setting [1]) came out at 16.2 nM; on hNPY2R (setting [4]) it was 53.1 nM; on hGIPR (setting [2]), 0.21 nM; on hGIPR (setting [5]), 1.72 nM; at hGLP1R (setting [3]), 0.17 nM.
Take “H-Y[Aib]EGTFTSDYSI[Aib]LEKQAQ[Aib]AFVEWLIK([εLys-γGlu-γGlu-γGlu-γGlu-γGlu-γGlu-C20 diacid])GGPSSGASLR[Tle]YYNWLTRQRY-NH2 [Compound 119, Y-Aib-E-G-T-F-T-S-D-Y-S-I-Aib-L-E-K-Q-A-Q-Aib-A-F-V-E-W-L-I-K(1,3)-G-G-P-S-S-G-A-S-L-R-Tle-Y-Y-N-W-L-T-R-Q-R-Y-NH2.C20DA-gGlu-gGlu-gGlu-gGlu-gGlu-gGlu-eLys(1,2)]”: the figures for the EC50 on hNPY2R (setting [1]), on hGIPR (setting [2]) and on hGLP1R (setting [3]) were 23.1 nM, 0.63 nM and 0.26 nM, respectively.
With “H-Y[Aib]EGTFTSDYSI[Aib]LEKQAQ[Aib]AFVQWLIK([εLys-γGlu-γGlu-γGlu-γGlu-γGlu-γGlu-C20 diacid])GGPSEGVSLRHYYNWLTRQRY-NH2 [Compound 114, Y-Aib-E-G-T-F-T-S-D-Y-S-I-Aib-L-E-K-Q-A-Q-Aib-A-F-V-Q-W-L-I-K(1,3)-GGPSEGVSLRHYYNWLTRQRY-NH2.C20DA-gGlu-gGlu-gGlu-gGlu-gGlu-gGlu-eLys(1,2)]”, the EC50 at hNPY2R (setting [4]) was found to be 44.8 nM; at hGIPR (setting [2]), 0.27 nM; on hGLP1R (setting [3]) it was 0.15 nM.
As to “H-Y[Aib]EGTFTSDYSI[Aib]LEEQAQ[Aib]AFVEWLIK([εLys-γGlu-γGlu-γGlu-γGlu-γGlu-γGlu-C20 diacid])GGPSSGQSLRHYYNWLTRQRY-NH2 [Compound 31, Y-Aib-E-G-T-F-T-S-D-Y-S-I-Aib-L-E-E-Q-A-Q-Aib-A-F-V-E-W-L-I-K(1,3)-GGPSSGQSLRHYYNWLTRQRY-NH2.C20DA-gGlu-gGlu-gGlu-gGlu-gGlu-gGlu-eLys(1,2)]”, the values for the EC50 on hNPY2R (setting [1]), on hGIPR (setting [2]) and at hGLP1R (setting [3]) were 13.4 nM, 0.15 nM and 0.06 nM, respectively.
For the substance “H-Y[Aib]EGTFTSDYSI[Aib]LEKQAQ[Aib]AFVEWLIK([εLys-γGlu-γGlu-γGlu-γGlu-γGlu-C18 diacid])GGPESGASLRHYYNWLTRQRY-NH2 [Compound 152, Y-Aib-E-G-T-F-T-S-D-Y-S-I-Aib-L-E-K-Q-A-Q-Aib-A-F-V-E-W-L-I-K(1,3)-GGPESGASLRHYYNWLTRQRY-NH2.C18DA-gGlu-gGlu-gGlu-gGlu-gGlu-eLys(1,2)]”, the EC50 on hNPY2R (setting [1]) came out at 12.6 nM; at hGIPR (setting [2]), 0.4 nM; at hGIPR (setting [5]) it was 0.96 nM; on hGLP1R (setting [3]), 0.13 nM; at hGLP1R (setting [6]) it was 4.24 nM.
The matching figures for “H-Y[Aib]EGTFTSDYSI[Aib]LEKQAQ[Aib]AFVQWLIK([εLys-γGlu-γGlu-γGlu-γGlu-γGlu-γGlu-C18 diacid])GGPEEGASLRHYYNWLTRQRY-NH2 [Compound 149, Y-Aib-E-G-T-F-T-S-D-Y-S-I-Aib-L-E-K-Q-A-Q-Aib-A-F-V-Q-W-L-I-K(1,3)-GGPEEGASLRHYYNWLTRQRY-NH2.C18DA-gGlu-gGlu-gGlu-gGlu-gGlu-gGlu-eLys(1,2)]”: 18.6 nM, 0.58 nM, 0.79 nM, 0.15 nM and 4.76 nM.
